Laboratory results published in US20240287093A1, “HIGH ACTIVITY STING PROTEIN AGONIST” (ADLAI NORTYE BIOPHARMA CO., LTD., priority 2018, published 2024).

What was measured:
Type in all cases: cell-based
STING variants (HAQ) = biological target: T1, STING variants (HAQ) (Homo sapiens, UniProt Q86WV6, G230A/R293Q/R71H); assay: SEAP reporter assay in HEK-Blue ISG KO-STING cells transfected with STING HAQ variant (Method 2, 0.0625 ng vector); settings: compound concentration 5 (mM as printed); 24 h; SEAP signal ratio to 0.5% DMSO
T1 construct: host or cells: HEK-Blue ISG KO-STING cells (Invivogen, hkb-kostg)
Excerpt: (§1) Example II: STING Variants (WT & HAQ) Activation by Compounds in HEK-Blue™ ISG KO-STING Cells (Method 2)
(§2) Activation of STING can be determined using a SEAP reporter assay in HEK-Blue™ ISG KO-STING cells (Invivogen, cat #hkb-kostg) transfected with plasmids expressing STING variants (WT & HAQ) (referred to WO2017/175147A1). STING variants (WT & HAQ) vector were constructed based on STING-232H vector (Origene, RC208418). GFP vector (VT2069) was bought from Youbio. The detailed protocol as follows: HEK-Blue™ ISG KO-STING cells were harvest and seeding into 96 well plate and the final cell number was 0.8×10^5 cells/well. Transfections were prepared using Lipofectamine 2000 (Invitrogen, Cat #11668-027) following the manufacturer's instructions (Lipo2000:DNA=1:10), 20 ul of transfection suspension containing 1 ng (WT variant) or 0.0625 ng (HAQ variant) STING vector was added to cell culture plate and incubated at 37° C., 5% CO2 for 24 h. After 24 hours incubation, compounds were added at proper concentration, the final DMSO concentration was 0.5%. After 24h incubation, the supernatant was collected to detect SEAP signal using Great EscAPe SEAP chemiluminescence KIT (Clontech, cat #631738) and cells were collected to detect cell viability using CellTiter-Glo Luminescent Cell Viability Assay(Promega, cat #G7573) following the manufacturer's instructions. The data were described by the ratio of the stimulating signal of compounds to 0.5% DMSO.

STING variants (WT) = biological target: T2, STING variants (WT) (Homo sapiens, UniProt Q86WV6); assay: SEAP reporter assay in HEK-Blue ISG KO-STING cells transfected with STING WT variant (Method 2, 1 ng vector); settings: compound concentration 2.5 (mM as printed); 24 h; SEAP signal ratio to 0.5% DMSO
T2 construct: host or cells: HEK-Blue ISG KO-STING cells (Invivogen, hkb-kostg)
Excerpt: as §1, §2

STING = biological target: T3, STING (Homo sapiens, UniProt Q86WV6, G230A/H232R/R293Q/R71H); assay: IFNβ release from THP1 by STING activation (hIFNβ ELISA); settings: THP1 cells, 24 h, IFN-β in supernatant; inactive = IFNβ not detected at the maximum concentration of compounds
T3 construct: THP1 was purchased from National Collection of Authenticated Cell Cultures (Cat #TCHu 57); host or cells: THP1
In short: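 THP1 cells from log-phase culture, suspended at 2×10^6 cells/ml, were treated with an 8-point, 3-fold compound series (0.2% DMSO final) for 24 h at 37°C, 5% CO2. Secreted IFN-β in supernatant was quantified by human IFNβ ELISA, and EC50 was obtained by curve fitting.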

T1 sequence (Q86WV6 whole entry R71H/G230A/R293Q): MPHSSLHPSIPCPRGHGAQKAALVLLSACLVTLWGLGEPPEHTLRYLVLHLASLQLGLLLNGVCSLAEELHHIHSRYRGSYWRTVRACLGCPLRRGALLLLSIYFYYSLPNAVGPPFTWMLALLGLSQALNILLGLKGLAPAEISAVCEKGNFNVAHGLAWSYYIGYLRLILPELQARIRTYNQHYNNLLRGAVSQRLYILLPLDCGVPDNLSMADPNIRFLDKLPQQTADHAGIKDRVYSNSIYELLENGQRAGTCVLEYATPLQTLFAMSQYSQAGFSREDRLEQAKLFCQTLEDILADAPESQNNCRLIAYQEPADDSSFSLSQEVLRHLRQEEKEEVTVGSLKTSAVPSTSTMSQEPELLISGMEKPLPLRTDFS
T3 sequence (Q86WV6 whole entry R71H/G230A/H232R/R293Q): as the sequence (Q86WV6 whole entry R71H/G230A/R293Q) above, with H232R counted along it

Fold change related to DMSO control, HAQ (STING variants (HAQ)) [fold]	Fold change related to DMSO control, WT (STING variants (WT)) [fold]	hIFNβ ELISA (EC50, μM) (STING)	EC50 (STING) [µM]	Compound
8.89	1.63	–	> 11.6	CCn1nc(C)c(F)c1C(=O)Nc1nc2cc(C(N)=O)cc3c2n1CCCO3 [Example 65, 1-(1-ethyl-4-fluoro-3-methyl-1H-pyrazole-5-carboxamido)-8,9-dihydro-7H-6-oxa-2,9a-diazabenzo[cd]azulene-4-carboxamide]
3.27	1.24	–	> 38.5	CCn1nc(C)c(F)c1C(=O)Nc1nc2cc(C(N)=O)cc3c2n1CC1(COC1)CO3 [Example 72, 1-(1-Ethyl-4-fluoro-3-methyl-1H-pyrazole-5-carboxamido)-7H,9H-6-oxa-2,9a-diazaspiro[benzo[cd]azulene-8,3′-oxetan]-1,2a,2a^1(5a),4-tetraene-4-carboxamide]
8.67	1.90	–	> 16.7	CCn1nc(C)cc1C(=O)Nc1nc2cc(C(N)=O)cc3c2n1CC1(CC1)CO3 [Example 61, 1-(1-ethyl-3-methyl-1H-pyrazole-5-carboxamido)-7H,9H-6-oxa-2,9a-diazaspiro[benzo[cd]azulene-8,1′-cyclopropan]-1,2a,3,5-tetraene-4-carboxamide]
15.38	2.48	–	19.8	CCn1nc(C)c(F)c1C(=O)Nc1nc2cc(C(N)=O)cc3c2n1CC(C)(C)CO3 [Example 44, 1-(1-Ethyl-4-fluoro-3-methyl-1H-pyrazole-5-carboxamido)-8,8-dimethyl-8,9-dihydro-7H-6-oxa-2,9a-diazabenzo[cd]azulene-4-carboxamide]

Second part, the compound before the results:

Compound	Fold change related to DMSO control, HAQ (STING variants (HAQ)) [fold]	Fold change related to DMSO control, WT (STING variants (WT)) [fold]	hIFNβ ELISA (EC50, μM) (STING)	EC50 (STING) [µM]
C=Cc1c(C)nn(CC)c1C(=O)Nc1nc2cc(C(N)=O)cc3c2n1[C@@H](CCCN)CO3 [Example 51, (S)-3-(3-Aminopropyl)-2-(1-ethyl-3-methyl-4-vinyl-1H-pyrazole-5-carboxamido)-3,4-dihydro-5-oxa-1,2a-diazaacenaphthylene-7-carboxamide]	0.63	0.79	inactive	–
CCn1nc(C)c(Br)c1C(=O)Nc1nc2cc(C(N)=O)cc3c2n1[C@@H](C(C)C)CO3 [Example 56, (S)-2-(4-Bromo-1-ethyl-3-methyl-1H-pyrazole-5-carboxamido)-3-isopropyl-3,4-dihydro-5-oxa-1,2a-diazaacenaphthylene-7-carboxamide]	1.17	1.16	inactive	–
CC[C@H]1COc2cc(C(N)=O)cc3nc(NC(=O)c4c(Br)c(C)nn4CC)n1c23 [Example 49, (S)-2-(4-Bromo-1-ethyl-3-methyl-1H-pyrazole-5-carboxamido)-3-ethyl-3,4-dihydro-5-oxa-1,2a-diazaacenaphthylene-7-carboxamide]	1.94	1.49	–	> 2.5
CCn1nc(C)cc1C(=O)Nc1nc2cc(C(N)=O)cc3c2n1C[C@@H](C)CO3 [Example 70, (R)-1-(1-Ethyl-3-methyl-1H-pyrazole-5-carboxamido)-8-methyl-8,9-dihydro-7H-6-oxa-2,9a-diazabenzo[cd]azulene-4-carboxamide]	10.57	2.37	–	> 50
CCn1nc(C)cc1C(=O)Nc1nc2cc(C(N)=O)cc3c2n1CCCN3C [Example 60, 1-(1-ethyl-3-methyl-1H-pyrazole-5-carboxamido)-6-methyl-6,7,8,9-tetrahydro-2,6,9a-triaza benzo[cd]azulene-4-carboxamide]	73.46	6.55	–	15.8
